Consider 49 compounds from ChEMBL document CHEMBL5442379, “ASAP - SARS-CoV-2 nsp3 macrodomain single point” (2024).

SMILES strings stand for the structures.

The assay concerns the target Replicase polyprotein 1ab (Severe acute respiratory syndrome coronavirus 2) (UniProt P0DTD1).

Description: Functional biochemical assay to identify treatments for viral infectious disease that targets SARS-COV-2 nsp3 macrodomain, whereby the mechanism of action displaces an ADP-Ribose modified peptide from the binding site. Utilizing a time-resolved fluorescence method to measure binding by reading the emitted fluorescence intensity in two wavelengths.

Regarding `c1ccc2sc(CNc3ncnc4[nH]ccc34)nc2c1`, the inhibition (Concentration 50.0 uM, Number of replicates 2.0, Standard deviation 5.906 %) is -0.671%.
In the case of `COCc1cc(CNc2nc3[nH]cnc3c(=O)[nH]2)on1`, the inhibition (Concentration 50.0 uM, Number of replicates 2.0, Standard deviation 1.926 %) stood at 2.98%.
For `O=C(c1nc(=O)[nH][nH]1)N1CCC(c2ccn3ncc(C(=O)N4CCCCC4)c3c2)CC1`, the inhibition (Concentration 49.75 uM, Number of replicates 2.0, Standard deviation 0.837 %) turned out to be 23.4% and the inhibition (Concentration 99.5 uM, Number of replicates 2.0, Standard deviation 3.14 %) is 34.6%.
`COc1ccccc1CN(C[C@@H]1CCCO1)c1ncnc2[nH]ccc12`: where the note is “Concentration 50.0 uM, Number of replicates 2.0, Standard deviation 1.448 %”, the inhibition came to 4.74%.
With `O=C(O)c1ccc2c(c1)ncn2-c1ccc(CNC(=O)c2ncnc3[nH]ccc23)cc1`, under “Concentration 99.5 uM, Number of replicates 2.0, Standard deviation 0.835 %”, the inhibition is -4.65%.
For `Cn1ncc2ncnc(NCc3ncccc3O)c21`, for the setting “Concentration 50.0 uM, Number of replicates 2.0, Standard deviation 1.081 %”, the inhibition was -2.55%.
For `c1nc(N[C@@H]2CCCc3c2cnn3C2CCCC2)c2cc[nH]c2n1`, the inhibition (Concentration 49.75 uM, Number of replicates 2.0, Standard deviation 0.354 %) is 0.884% and the inhibition (Concentration 99.5 uM, Number of replicates 2.0, Standard deviation 0.15 %) came out at 14.3%.
Regarding `Cn1cnc(C(=O)N(CCC(=O)N2CCNCC2)Cc2cccc(Cl)c2)n1`, the inhibition was -1.44% (Concentration 49.75 uM, Number of replicates 2.0, Standard deviation 2.331 %) and -0.25% (Concentration 99.5 uM, Number of replicates 2.0, Standard deviation 4.384 %).
On to `CC1(C)CN(C(=O)c2ccc(NC(=O)Nc3ccccc3)cc2)C[C@@]1(F)C(=O)O`, for which the inhibition (Concentration 49.75 uM, Number of replicates 2.0, Standard deviation 0.273 %) was -2.57% and the inhibition (Concentration 99.5 uM, Number of replicates 2.0, Standard deviation 1.041 %) was -5.19%.
Turning to `O=C(Nc1ccccc1)Nc1ccc(C(=O)NC2c3cccc(O)c3CC2C(=O)O)cc1` (stereo unspecified), under “Concentration 50.0 uM, Number of replicates 2.0, Standard deviation 0.256 %”, the inhibition came out at 99.9%.
Take `O=C(c1cc(O)ccn1)N1CCC(c2ccn3ncc(C(=O)N4CCCCC4)c3c2)CC1`: the inhibition reads like this: (Concentration 49.75 uM, Number of replicates 2.0, Standard deviation 1.167 %) 17.6%; (Concentration 99.5 uM, Number of replicates 2.0, Standard deviation 1.673 %) 32.2%.
Turning to `c1ccc2sc(CCNc3ncnc4nc[nH]c34)nc2c1`, the inhibition (Concentration 50.0 uM, Number of replicates 2.0, Standard deviation 2.493 %) is -4.21%.
Take `O=C(OCc1ncccc1Cl)c1ncnc2[nH]ccc12`: for the setting “Concentration 50.0 uM, Number of replicates 2.0, Standard deviation 2.408 %”, the inhibition stood at 5.06%.
As to `O=C(CCN(Cc1cccc(Cl)c1)C(=O)c1ccc(O)cc1)N1CCNCC1`, the inhibition is, setting by setting: (Concentration 49.75 uM, Number of replicates 2.0, Standard deviation 5.17 %) -0.343%; (Concentration 99.5 uM, Number of replicates 2.0, Standard deviation 10.002 %) -1.63%.
As to `O=C(c1nnn[nH]1)N1CCC(c2ccn3ncc(C(=O)N4CCCCC4)c3c2)CC1`, the inhibition by setting is: (Concentration 49.75 uM, Number of replicates 2.0, Standard deviation 0.79 %) 55.1%; (Concentration 99.5 uM, Number of replicates 2.0, Standard deviation 0.232 %) 69%.
As for `CC(C)Cn1cc([C@H]2N(c3ncnc4[nH]ccc34)CC23CCOCC3)cn1`, the inhibition (Concentration 49.75 uM, Number of replicates 2.0, Standard deviation 1.28 %) is -0.591% and the inhibition (Concentration 99.5 uM, Number of replicates 2.0, Standard deviation 6.534 %) was -4.66%.
`Cc1nc(NC(=O)[C@@H]2CCCOC2)c2ccnc-2[nH]1`: for the setting “Concentration 50.0 uM, Number of replicates 2.0, Standard deviation 1.269 %”, the inhibition is -3.2%.
For the compound `c1ccc([C@@H](CNc2ncnc3n[nH]cc23)N2CCOCC2)cc1`, the inhibition (Concentration 50.0 uM, Number of replicates 2.0, Standard deviation 1.427 %) is -0.781%.
On to `Cc1nn(Cc2ccccc2)c(C)c1CNc1ncnc2[nH]ncc12`, for which the inhibition (Concentration 50.0 uM, Number of replicates 2.0, Standard deviation 2.858 %) is -1.75%.
For `Cc1nc2cnccn2c1NC(=O)c1cc(-c2ccco2)[nH]n1`, the inhibition (Concentration 50.0 uM, Number of replicates 2.0, Standard deviation 2.08 %) was -3.88%.
As to `CSc1cccc(NC(=O)c2ncnc3[nH]ccc23)c1`, the inhibition (Concentration 50.0 uM, Number of replicates 2.0, Standard deviation 4.41 %) is -4.67%.
Take `O=C1NC[C@@H](C(=O)N(CCC(=O)N2CCNCC2)Cc2cccc(Cl)c2)O1`: the inhibition came out at 0.125% (Concentration 49.75 uM, Number of replicates 2.0, Standard deviation 2.173 %) and 5.24% (Concentration 99.5 uM, Number of replicates 2.0, Standard deviation 10.437 %).
Turning to `Cc1cccc(C)c1-n1nnnc1CSc1ncnc2[nH]cnc12`, for the setting “Concentration 50.0 uM, Number of replicates 2.0, Standard deviation 4.544 %”, the inhibition amounted to 6.63%.
Consider `C[C@@H](Nc1ncnc2[nH]ccc12)c1cnn(Cc2ccccc2)c1`, for which the inhibition runs as follows: (Concentration 49.75 uM, Number of replicates 2.0, Standard deviation 0.659 %) -4.11%; (Concentration 99.5 uM, Number of replicates 2.0, Standard deviation 0.985 %) 3.18%.
`Cc1ccnc(C2CCN(c3ncnc4[nH]ccc34)CC2)n1`: for the setting “Concentration 50.0 uM, Number of replicates 2.0, Standard deviation 3.755 %”, the inhibition amounted to 3.46%.
For the compound `C[C@@H](Cc1ccc(Cl)s1)Nc1ccc([C@@H](CC(=O)O)NC(=O)c2c[nH]c3ncncc23)cc1`, the inhibition reads like this: (Concentration 49.75 uM, Number of replicates 2.0, Standard deviation 2.68 %) -1.54%; (Concentration 99.5 uM, Number of replicates 2.0, Standard deviation 2.267 %) 1.95%.
On to `CN(C)[C@@H]1CCCN(C(=O)c2cnc3c(c2)c(=O)[nH]c(=O)n3C)CC1`, for which, where the note is “Concentration 50.0 uM, Number of replicates 2.0, Standard deviation 1.745 %”, the inhibition was -8.97%.
Consider `O=C(c1ccnc(S)c1)N1CCC(c2ccn3ncc(C(=O)N4CCCCC4)c3c2)CC1`, for which the inhibition was determined as 20.2% (Concentration 49.75 uM, Number of replicates 2.0, Standard deviation 0.749 %) and 35.5% (Concentration 99.5 uM, Number of replicates 2.0, Standard deviation 3.677 %).
`Cc1nn(C)c(C)c1[C@H]1COCCN1c1ncnc2[nH]ccc12`: the inhibition runs as follows: (Concentration 49.75 uM, Number of replicates 2.0, Standard deviation 4.821 %) -0.137%; (Concentration 99.5 uM, Number of replicates 2.0, Standard deviation 1.988 %) -0.128%.
In the case of `O=C(c1ccccc1)N1CCC(c2ccn3ncc(C(=O)N4CCn5ncnc5C4)c3c2)CC1`, the inhibition by setting is: (Concentration 49.75 uM, Number of replicates 2.0, Standard deviation 0.529 %) -3.77%; (Concentration 99.5 uM, Number of replicates 2.0, Standard deviation 3.194 %) -3.52%.
`CC(C)[C@@H]1C(=O)NCCN1c1ncnc2[nH]ccc12`: the inhibition is, setting by setting: (Concentration 49.75 uM, Number of replicates 2.0, Standard deviation 1.976 %) 61.4%; (Concentration 99.5 uM, Number of replicates 2.0, Standard deviation 0.754 %) 80.7%.
Take `O=C(CCN(Cc1cccc(Cl)c1)C(=O)c1c[nH]c(=O)cn1)N1CCNCC1`: the inhibition by setting is: (Concentration 49.75 uM, Number of replicates 2.0, Standard deviation 1.237 %) -2.71%; (Concentration 99.5 uM, Number of replicates 2.0, Standard deviation 0.012 %) 0.98%.
On to `Cn1nc(NC(=O)c2cc3nccn3c(=O)[nH]2)c2nccnc21`, for which, where the note is “Concentration 50.0 uM, Number of replicates 2.0, Standard deviation 4.143 %”, the inhibition is -1.91%.
For the compound `FC(F)(F)c1ccccc1[C@@H]1CN(c2ncnc3[nH]ccc23)CCO1`, the inhibition (Concentration 50.0 uM, Number of replicates 2.0, Standard deviation 3.904 %) is -5.31%.
With `O=C(Cc1ccc(F)cc1)Nc1ccc2[nH]ncc2c1`, the inhibition (Concentration 50.0 uM, Number of replicates 2.0, Standard deviation 1.625 %) is 1.14%.
As to `Cc1cccc(OCCNc2ncnc3nc[nH]c23)c1`, where the note is “Concentration 50.0 uM, Number of replicates 2.0, Standard deviation 4.697 %”, the inhibition worked out at 3.91%.
As for `C[C@H](NC(=O)c1ccc(NC(=O)Nc2ccccc2)cc1)[C@@H]1CCCO1`, the inhibition by setting is: (Concentration 49.75 uM, Number of replicates 2.0, Standard deviation 1.099 %) -4.28%; (Concentration 99.5 uM, Number of replicates 2.0, Standard deviation 2.587 %) -4.86%.
In the case of `Cc1n[nH]nc1C(=O)N1CCC(c2ccn3ncc(C(=O)N4CCCCC4)c3c2)CC1`, the inhibition is, setting by setting: (Concentration 49.75 uM, Number of replicates 2.0, Standard deviation 0.483 %) 29.3%; (Concentration 99.5 uM, Number of replicates 2.0, Standard deviation 0.403 %) 45.8%.
For the compound `Cc1[nH]c2ncnc(NC(=O)[C@@H]3CCO[C@@H]3C)c2c1C`, the inhibition (Concentration 50.0 uM, Number of replicates 2.0, Standard deviation 0.696 %) is 35.1%.
Consider `Cc1nc(NC(=O)Cn2cnc3ccccc3c2=O)c2cc[nH]c2n1`, for which the inhibition runs as follows: (Concentration 49.75 uM, Number of replicates 2.0, Standard deviation 4.18 %) -4.07%; (Concentration 99.5 uM, Number of replicates 2.0, Standard deviation 1.131 %) -4.89%.
As for `NS(=O)(=O)N1CCCN(c2ncnc3[nH]c(I)cc23)CC1`, the inhibition (Concentration 50.0 uM, Number of replicates 2.0, Standard deviation 1.583 %) was found to be 2.29%.
As for `COC(=O)c1cc2c(Oc3ccccc3C#N)ncnc2[nH]1`, under “Concentration 50.0 uM, Number of replicates 2.0, Standard deviation 0.741 %”, the inhibition is 2.92%.
Regarding `COc1cc(CNc2cnc3[nH]ncc3c2)ccc1Cl`, the inhibition (Concentration 50.0 uM, Number of replicates 2.0, Standard deviation 4.023 %) is -2.79%.
For `Cn1c(C(=O)NCCNC(=O)c2ccco2)cc2c(=O)n3ccccc3nc21`, the inhibition (Concentration 50.0 uM, Number of replicates 2.0, Standard deviation 1.378 %) was -4.47%.
`CC(C)[C@@H](Nc1ncnc2n[nH]cc12)c1cnn(C)c1`: the inhibition (Concentration 50.0 uM, Number of replicates 2.0, Standard deviation 1.634 %) turned out to be 63.5%.
Regarding `CC(C)[C@@H](Nc1ncnc2[nH]ccc12)c1cccs1`, the inhibition (Concentration 49.75 uM, Number of replicates 2.0, Standard deviation 1.872 %) came out at 84.7% and the inhibition (Concentration 99.5 uM, Number of replicates 2.0, Standard deviation 2.645 %) worked out at 89.9%.
For `C[C@H](NC(=O)c1cnn2ccc(C3CCN(C(=O)c4ccccc4)CC3)cc12)c1cccnc1`, the inhibition (Concentration 49.75 uM, Number of replicates 2.0, Standard deviation 2.207 %) was -1.84% and the inhibition (Concentration 99.5 uM, Number of replicates 2.0, Standard deviation 1.542 %) is -6.21%.
In the case of `O=C(Nc1ccccc1)Nc1ccc(C(=O)N2CCn3nccc3C2)cc1`, the inhibition was -3.11% (Concentration 49.75 uM, Number of replicates 2.0, Standard deviation 2.554 %) and 2.3% (Concentration 99.5 uM, Number of replicates 2.0, Standard deviation 2.469 %).
In the case of `O=C(O)[C@H]1CCCCCN1C(=O)c1ncnc2[nH]ccc12`, under “Concentration 50.0 uM, Number of replicates 2.0, Standard deviation 6.117 %”, the inhibition was 11.8%.

For orientation: inhibition means the drop in the measured response relative to a control, in per cent.
